We go through 24 compounds from US20180237441A1, “Chemical Compounds” (GlaxoSmithKline Intellectual Property (No.2) Limited, priority 2015, published 2018).

pIC50: −log10 of the molar value. Where two headings read alike, the source gives them in different places.

This test concerns the target T1, PERK (Homo sapiens, UniProt Q9NZJ5).
T1 sequence (Q9NZJ5 30-1116): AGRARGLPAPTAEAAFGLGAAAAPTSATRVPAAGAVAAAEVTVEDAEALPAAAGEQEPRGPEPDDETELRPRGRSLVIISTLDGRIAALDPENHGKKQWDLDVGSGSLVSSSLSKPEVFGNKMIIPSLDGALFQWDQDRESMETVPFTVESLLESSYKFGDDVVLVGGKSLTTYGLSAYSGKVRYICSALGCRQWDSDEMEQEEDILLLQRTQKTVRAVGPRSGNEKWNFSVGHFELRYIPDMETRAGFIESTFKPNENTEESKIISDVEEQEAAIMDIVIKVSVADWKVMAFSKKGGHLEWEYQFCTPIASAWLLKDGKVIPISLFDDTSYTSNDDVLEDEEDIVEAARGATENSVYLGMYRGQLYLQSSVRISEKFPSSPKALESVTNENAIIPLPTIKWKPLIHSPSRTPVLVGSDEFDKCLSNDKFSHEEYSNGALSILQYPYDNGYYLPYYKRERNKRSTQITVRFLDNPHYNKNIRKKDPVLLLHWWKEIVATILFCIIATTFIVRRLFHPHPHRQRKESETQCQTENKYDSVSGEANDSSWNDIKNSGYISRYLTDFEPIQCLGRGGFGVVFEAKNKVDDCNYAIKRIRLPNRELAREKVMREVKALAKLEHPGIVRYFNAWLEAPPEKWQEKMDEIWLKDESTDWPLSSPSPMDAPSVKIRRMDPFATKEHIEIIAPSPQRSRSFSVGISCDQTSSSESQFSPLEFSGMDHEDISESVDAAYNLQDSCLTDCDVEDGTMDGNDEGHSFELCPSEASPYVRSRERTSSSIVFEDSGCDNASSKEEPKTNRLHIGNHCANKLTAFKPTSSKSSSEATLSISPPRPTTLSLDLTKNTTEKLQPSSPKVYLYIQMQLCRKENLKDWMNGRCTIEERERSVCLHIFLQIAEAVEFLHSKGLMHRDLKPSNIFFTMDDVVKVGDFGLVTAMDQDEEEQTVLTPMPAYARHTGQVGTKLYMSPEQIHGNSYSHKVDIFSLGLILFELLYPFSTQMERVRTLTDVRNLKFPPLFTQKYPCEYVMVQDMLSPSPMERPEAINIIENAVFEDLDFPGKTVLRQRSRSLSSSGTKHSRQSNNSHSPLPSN
As to the kind of experiment: PERK enzyme assay (HTRF). It counts as biochemical. Conditions: at least one experimental run. The gist of the method:
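HTRF read-out after 2 h of EDTA-quenched reactions, detecting phospho-eIF2α with Eu/APC reagents, gave IC50 values. Reaction: 0.75 nM GST-PERK, 30–60 min compound pre-incubation (max 1% DMSO), then 60 min with 40 nM biotin-eIF2α and 500 μM ATP, HEPES pH 7.5 buffer.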
(TR-FRET usually uses a lanthanide donor and a delayed reading to cut background.)

Setting [1] is: PERK Enzyme (500 μM ATP) IC50, read-out: PERK Activity.

On to `CCN1C(=O)N(c2ccc(-c3cn(C)c4ncnc(N)c34)c(F)c2)CC1c1cc(F)cc(F)c1F` (stereo not shown) [Example 55, 1-(4-(4-amino-7-methyl-7H-pyrrolo[2,3-d]pyrimidin-5-yl)-3-fluorophenyl)-3-ethyl-4-(2,3,5-trifluorophenyl)imidazolidin-2-one], for which the pIC50 under setting [1] was 6.00 to 7.00.

`CN1C(=O)N(c2ccc(-c3cn(C)c4ncnc(N)c34)c(F)c2)CC1c1cc(F)cc(F)c1F` (stereo not shown) [Example 56, 1-(4-(4-amino-7-methyl-7H-pyrrolo[2,3-d]pyrimidin-5-yl)-3-fluorophenyl)-3-methyl-4-(2,3,5-trifluorophenyl)imidazolidin-2-one]: the pIC50 under setting [1] is 6.00 to 7.00.

For `CCN1C(=O)N(c2ccc(-c3cn(C)c4ncnc(N)c34)c(F)c2)CC1c1ccc(F)cc1` (stereo not shown) [Example 57], the pIC50 under setting [1] is above 7.00.

In the case of `CN1C(=O)N(c2ccc(-c3cn(C)c4ncnc(N)c34)c(F)c2)CC1C1CCCCC1` (stereo not shown) [Example 58, 1-(4-(4-amino-7-methyl-7H-pyrrolo[2,3-d]pyrimidin-5-yl)-3-fluorophenyl)-4-cyclohexyl-3-methylimidazolidin-2-one], under setting [1], the pIC50 is above 7.00.

With `CN1C(=O)N(c2ccc(-c3cn(C)c4ncnc(N)c34)c(F)c2)CC1c1cccnc1` (stereo not shown) [Example 60, 1-(4-(4-amino-7-methyl-7H-pyrrolo[2,3-d]pyrimidin-5-yl)-3-fluorophenyl)-3-methyl-4-(pyridin-3-yl)imidazolidin-2-one], the pIC50 under setting [1] was above 7.00.

`COc1ccc(C2CN(c3ccc(-c4cn(C)c5nc(C)nc(N)c45)c(F)c3)C(=O)N2C)cc1` (stereo not shown) [Example 64, 1-(4-(4-amino-2,7-dimethyl-7H-pyrrolo[2,3-d]pyrimidin-5-yl)-3-fluorophenyl)-4-(4-methoxyphenyl)-3-methylimidazolidin-2-one]: the pIC50 under setting [1] is 6.00 to 7.00.

Take `Cc1nc(N)c2c(-c3ccc(N4CC(c5ccc(F)cc5F)N(C)C4=O)cc3F)cn(C)c2n1` (stereo not shown) [Example 65, 1-(4-(4-amino-2,7-dimethyl-7H-pyrrolo[2,3-d]pyrimidin-5-yl)-3-fluorophenyl)-4-(2,4-difluorophenyl)-3-methylimidazolidin-2-one]: under setting [1], the pIC50 was 6.00 to 7.00.

As to `CN1C(=O)N(c2ccc(-c3cn(C)c4ncnc(N)c34)c(F)c2)CC1c1ccc(F)cc1` (stereo not shown) [Example 68, 1-(4-(4-amino-7-methyl-7H-pyrrolo[2,3-d]pyrimidin-5-yl)-3-fluorophenyl)-4-(4-fluorophenyl)-3-methylimidazolidin-2-one], the pIC50 under setting [1] was above 7.00.

As to `Cc1nc(N)c2c(-c3ccc(N4CC(c5ccc(F)cc5)N(C)C4=O)cc3F)cn(C)c2n1` (stereo not shown) [Example 69, 1-(4-(4-amino-2,7-dimethyl-7H-pyrrolo[2,3-d]pynmidin-5-yl)-3-fluorophenyl)-4-(4-fluorophenyl)-3-methylimidazolidin-2-one], the pIC50 under setting [1] is above 7.00.

Consider `Cc1nc(N)c2c(-c3ccc(N4CC(c5c(F)ccc(F)c5F)N(C)C4=O)cc3F)cn(C)c2n1` (stereo not shown) [Example 72, 1-(4-(4-amino-2,7-dimethyl-7H-pyrrolo[2,3-d]pyrimidin-5-yl)-3-fluorophenyl)-3-methyl-4-(2,3,6-trifluorophenyl)imidazolidin-2-one], for which the pIC50 under setting [1] was 6.00 to 7.00.

In the case of `CN1C(=O)N(c2ccc(-c3cn(C)c4ncnc(N)c34)c(F)c2)CC1c1cccc(OC(F)F)c1` (stereo not shown) [Example 73, 1-(4-(4-amino-7-methyl-7H-pyrrolo[2,3-d]pyrimidin-5-yl)-3-fluorophenyl)-4-(3-(difluoromethoxy)phenyl)-3-methylimidazolidin-2-one], the pIC50 under setting [1] was 6.00 to 7.00.

Take `CN1C(=O)N(c2ccc(-c3cn(C)c4ncnc(N)c34)c(F)c2)CC1c1cccc(F)c1F` (stereo not shown) [Example 74, 1-(4-(4-amino-7-methyl-7H-pyrrolo[2,3-d]pyrimidin-5-yl)-3-fluorophenyl)-4-(2,3-difluorophenyl)-3-methylimidazolidin-2-one]: the pIC50 under setting [1] is 6.00 to 7.00.

For `CCN1C(=O)N(c2ccc(-c3cn(C)c4ncnc(N)c34)c(F)c2)CC1c1cccc(F)c1F` (stereo not shown) [Example 75, 1-(4-(4-amino-7-methyl-7H-pyrrolo[2,3-d]pyrimidin-5-yl)-3-fluorophenyl)-4-(2,3-difluorophenyl)-3-ethylimidazolidin-2-one], the pIC50 under setting [1] is 6.00 to 7.00.

Take `Cc1nc(N)c2c(-c3ccc(N4CC(c5ccc(F)c(F)c5)N(C)C4=O)cc3F)cn(C)c2n1` (stereo not shown) [Example 78, 1-(4-(4-amino-2,7-dimethyl-7H-pyrrolo[2,3-d]pyrimidin-5-yl)-3-fluorophenyl)-4-(3,4-difluorophenyl)-3-methylimidazolidin-2-one]: under setting [1], the pIC50 is above 7.00.

As for `Cn1cc(-c2ccc(N3CC(c4ccc(F)cc4F)N(CC(F)(F)F)C3=O)cc2F)c2c(N)ncnc21` (stereo not shown) [Example 79, 1-(4-(4-amino-7-methyl-7H-pyrrolo[2,3-d]pyrimidin-5-yl)-3-fluorophenyl)-4-(2,4-difluorophenyl)-3-(2,2,2-trifluoroethyl)imidazolidin-2-one], under setting [1], the pIC50 is above 7.00.

Take `CN1C(=O)N(c2ccc(-c3cn(C)c4ncnc(N)c34)c(F)c2)CC1c1c(F)cccc1F` (stereo not shown) [Example 81, 1-(4-(4-amino-7-methyl-7H-pyrrolo[2,3-d]pyrimidin-5-yl)-3-fluorophenyl)-4-(2,6-difluorophenyl)-3-methylimidazolidin-2-one]: the pIC50 under setting [1] was above 7.00.

For the compound `CN1C(=O)N(c2ccc(-c3cn(CC(F)(F)F)c4ncnc(N)c34)c(F)c2)CC1c1ccc(F)cc1F` (stereo not shown) [Example 82, 1-(4-(4-amino-7-(2,2,2-trifluoroethyl)-7H-pyrrolo[2,3-d]pyrimidin-5-yl)-3-fluorophenyl)-4-(2,4-difluorophenyl)-3-methylimidazolidin-2-one], the pIC50 under setting [1] is 6.00 to 7.00.

Regarding `CN1C(=O)N(c2ccc(-c3cn(C)c4ncnc(N)c34)c(F)c2)CC1c1cc(F)cc(C(F)(F)F)c1` (stereo not shown) [Example 84, 1-(4-(4-amino-7-methyl-7H-pyrrolo[2,3-d]pyrimidin-5-yl)-3-fluorophenyl)-4-(3-fluoro-5-(trifluoromethyl)phenyl)-3-methylimidazolidin-2-one], the pIC50 under setting [1] was 6.00 to 7.00.

Regarding `CCN1C(=O)N(c2ccc(-c3cn(C)c4ncnc(N)c34)c(F)c2)CC1c1cc(F)cc(C(F)(F)F)c1` (stereo not shown) [Example 85, 1-(4-(4-amino-7-methyl-7H-pyrrolo[2,3-d]pyrimidin-5-yl)-3-fluorophenyl)-3-ethyl-4-(3-fluoro-5-(trifluoromethyl)phenyl)imidazolidin-2-one], the pIC50 under setting [1] is 6.00 to 7.00.

Consider `Cc1nc(N)c2c(-c3ccc(N4CC(c5ccc(F)cc5)N(C)C4=O)cc3F)cn(C3CC3)c2n1` (stereo not shown) [Example 91, 1-(4-(4-amino-7-cyclopropyl-2-methyl-7H-pyrrolo[2,3-d]pyrimidin-5-yl)-3-fluorophenyl)-4-(4-fluorophenyl)-3-methylimidazolidin-2-one], for which the pIC50 under setting [1] was above 7.00.

With `CC(C)n1cc(-c2ccc(N3CC(c4ccc(F)cc4F)N(C)C3=O)cc2F)c2c(N)ncnc21` (stereo not shown) [Example 92, 1-(4-(4-amino-7-isopropyl-7H-pyrrolo[2,3-d]pyrimidin-5-yl)-3-fluorophenyl)-4-(2,4-difluorophenyl)-3-methylimidazolidin-2-one], the pIC50 reads like this: (500 μM ATP, read-out: PERK Enzyme (500 μM ATP) IC50) 6.45; under setting [1], 6.00 to 7.00.

Regarding `CCN1C(=O)N(c2ccc(-c3c(C)n(C)c4ncnc(N)c34)c(F)c2)CC1c1ccc(F)cc1F` (stereo not shown) [Example 93, 1-(4-(4-amino-6,7-dimethyl-7H-pyrrolo[2,3-d]pyrimidin-5-yl)-3-fluorophenyl)-4-(2,4-difluorophenyl)-3-ethylimidazolidin-2-one], the pIC50 under setting [1] is 6.00 to 7.00.

For the compound `Cc1c(-c2ccc(N3CC(c4ccc(F)cc4F)N(C)C3=O)cc2F)c2c(N)ncnc2n1C` (stereo not shown) [Example 94, 1-(4-(4-amino-6,7-dimethyl-7H-pyrrolo[2,3-d]pyrimidin-5-yl)-3-fluorophenyl)-4-(2,4-difluorophenyl)-3-methylimidazolidin-2-one], the pIC50 under setting [1] was 6.00 to 7.00.

On to `CN1C(=O)N(c2ccc(-c3cn(C)c4ncnc(N)c34)c(F)c2)CC1c1ccc(F)c(F)c1` (stereo not shown) [Example 96, 1-(4-(4-amino-7-methyl-7H-pyrrolo[2,3-d]pyrimidin-5-yl)-3-fluorophenyl)-4-(3,4-difluorophenyl)-3-methylimidazolidin-2-one], for which the pIC50 under setting [1] is above 7.00.
